Patent US20240391900A1, “RIP1 KINASE INHIBITOR AND USE THEREOF” (SIRONAX (BEIJING) CO., LTD., priority 2021, published 2024)

Key:
[1] = Rapid brain distribution assay (LC-MS/MS, brain tissue/plasma ratio); type: in vivo; conditions: mouse, ip, CD1 mice, intraperitoneal, grouped compounds, brain tissue and plasma taken one hour after administration, read-out: B/P
Description: The contents in plasma and tissue samples were measured by LC-MS/MS to obtain the ratio of the concentration in the brain tissue sample to that in the plasma sample, and compounds with blood-brain penetration could be quickly screened.
• 3.1. A group of compounds (usually 3-4 compounds, the molecular weight difference between each other was greater than 5), weighing 1-2 mg of each compound, were added into the same 4 mL weighing bottle. • 3.2. A mixed solvent of 10% DMSO+20% polyethylene glycol-15-hydroxystearate+70% H2O was used to prepare each group to a volume of 1.5 mL-2 mL. • 3.3. The mixture was ultrasonically vortexed until a homogeneous solution was obtained for intraperitioneal administration.
• 4.1. Three CD1 mice were prepared for each group and weighed. • 4.2. The administration volume was 10 mL/kg, and the mice were administered intraperitoneally. • 4.3. Timing was started after administration, and plasma samples and brain tissue samples were taken one hour later. • 4.4. The brain tissue sample was weighed, and then 4 fold volume of physiological saline was added. The resulting mixture was homogenized, and frozen at −20° C. until analysis.
• 5.1. The exact molecular weight of a compound was found from the compound information table. • 5.2. The corresponding parent ions and fragment ions were found, and the mass spectrometry condition and the liquid phase (chromatography) method were optimized to find the appropriate condition and method.
• 6.1. Plasma sample (5-fold dilution): 10 μL of the plasma sample was taken, and 40 μL of the blank plasma sample and 50 μL of the corresponding blank tissue sample were added. • 6.2 Tissue sample processing: 50 μL of the tissue sample (brain, kidney, liver and the like) was taken, and 50 μL of the blank plasma sample was added. • 6.3. The above tissue sample and the diluted plasma sample were taken, and 500 μL of the internal standard solution was added to precipitate the protein. The resulting mixture was vortexed for 2 minutes, stored by freezing at −20° C. for 1 hour and centrifuged at 3800 rpm for 15 minutes at 4° C. The supernatant was taken, 5-fold diluted with 50% MeOH, and then vortexed for 2 minutes, ready for measurement.
The sample was detected by using an appropriate LC-MS/MS method.
Distribution ratio of tissue/plasma=(peak area of compound in tissue/peak area of internal standard)/(peak area of compound in plasma/peak area of internal standard)

[2] = system: HT-29 human colon cancer cells; experiment: In vitro biological activity assay: inhibition of TNFα/SmacM/Z_VAD FMK-induced programmed necrosis, CellTiter-Glo viability; type: cell-based; conditions: HT-29 cells, necrosis induced with TNF-α 100 ng/mL, SmacM 100 nM, Z_VAD-FMK 10 μM, overnight, cell viability by chemiluminescence
Description: In order to verify the inhibitory effect of the compounds of the present disclosure on programmed necrosis at the cellular level, a type of cells closely related to the RIP1 pathway, namely HT-29 human colon cancer cells, were selected. The used activation mode is a combination of tumor necrosis factor (TNFα), cysteine aspartate activator mimic (SmacM) and pan-caspase inhibitor Z_VAD FMK, and the cell viability was calculated by detecting chemiluminescence values, thus obtaining the biological activity of the compound inhibiting the programmed necrosis of cells.
Cell line: HT-29 (ATCC® HTB-38™)
• 2.1. The Growth Status of HT-29 Cells was Regularly Checked to Ensure their Normal Growth. • 2.2. McCOY's 5A culture medium containing 10% FBS was preheated in a 37° C. water bath for 30 minutes. When the culture medium was ready for use, the cell passage and inoculation was performed in a Class II safety cabinet with aseptic technique. • 2.3. In a T75 culture flask, when the growth density of cells reached the abundance of approximately 80%, the culture medium was aspirated and cells were washed twice with pre-warmed PBS. • 2.4. 2-3 mL of trypsin (Gibco, catalog number 25200-056) was added and the T75 culture flask was transferred to a 37° C. incubator. • 2.5. After 3-5 minutes, the side of the culture flask was tapped and examined under a microscope for detachment of the cells to the flask. If necessary, the cells were placed back into the incubator to wait for another 5-10 minutes until 85% of the cells were detached from each other. • 2.6. 6-9 mL of complete cell culture medium was quickly added to terminate the trypsin reaction, and then the cells were transferred to a sterile 15 mL centrifuge tube. The cells were pelleted by centrifugation at 300 g for 5-7 minutes in a centrifuge, and then the supernatant was decanted. • 2.7. The cells were resuspended in 10 mL of fresh cell culture medium and the cells were counted by using a hemocytometer. • 2.8. 3,000 cells contained in 100 μL were inoculated into each well of a sterile 96-well cell culture plate (Corning 3903) and cultured overnight at 37° C. under 5% CO2.
• 3.1. All batches of compounds were dissolved in dimethyl sulfoxide (DMSO) to prepare a 20 mM stock. • 3.2. 3 μL of 20 mM stock of each compound was added to 27 μL of DMSO and mixed thoroughly, and then diluted at a dilution ratio of […] (20 μL compound+40 μL DMSO) until the 10-12 points ended. After the compounds were diluted, they were set aside for use. • 3.3. The cell culture plate was taken out from the incubator, washed once with PBS, and replaced with a fresh culture medium free of serum. A mixture of TNF-α (100 ng/mL), SMAC mimic (SmacM, 100 nM) and Z_VAD-FMK (10 μM) was added to induce the programmed necrosis in HT-29 cells. • 3.4. The compound dilution plate was prepared, 0.5 μL of the diluted compound was added to the corresponding 96-well plate, and mixed gently. Two duplicate wells were prepared for each compound. • 3.5. The treated 96-well plate to which the compounds had been added was placed back into the 37° C. incubator containing 5% CO2 and incubated overnight.
The luminescence cell viability detection kit was used to calculate the activity of the compound by measuring the ATP content in viable cells. • 4.1. The CellTiter-Glo® buffer and dry powdered substrate were equilibrated to room temperature before use. • 4.2. The CellTiter-Glo® substrate was resuspended with Cell Titer-Glo® buffer, then homogeneously mixed by gently vortexing. • 4.3. The cell culture plate was taken out and equilibrated at room temperature for 10 minutes (usually not suitable if more than 30 minutes). • 4.4. 20 μL of enzyme/substrate mixture was added into the 96-well assay plate with a multi-channel pipettor. • 4.5. The 96-well assay plate was placed on a shaker and the content was mixed for 2-3 minutes to promote the cell lysis. • 4.6. […]

Compound	Kp at 1 h [1]	EC50 [2]
C(#Cc1cnc2cccnn12)c1cccc(-n2cc3c(n2)C(c2ccccc2)CC3)n1 (stereo not drawn) [Compound 1, 3-((6-(6-phenyl-5,6-dihydrocyclopenta[c]pyrazol-2 (4H)-yl)pyridin-2-yl)ethynyl)imidazo[1,2-b]pyridazine]	0.735	≤ 100 nM
Nc1ncc(C#Cc2cncc(-n3nc4c(n3)C(C3CCCCC3)CC4)c2)cn1 (stereo not drawn) [Compound 2, 5-((5-(4-cyclohexyl-5,6-dihydrocyclopenta[d][1,2,3]triazol-2 (4H)-yl)pyridin-3-yl)ethynyl)pyrimidin-2-amine]	0.62	≤ 100 nM
Nc1ncc(C#CC2CCC(n3cc4c(n3)C(c3ccccc3)CC4)C2)cn1 (stereo not drawn) [Compound 3, 5-((3-(6-phenyl-5,6-dihydrocyclopenta[c]pyrazol-2 (4H)-yl)cyclopentyl)ethynyl)pyrimidin-2-amine]	3.96	≤ 100 nM
Cn1c(-n2cc3c(n2)C(c2ccccc2)CC3)cc(C#Cc2cnc(N)nc2)cc1=O (stereo not drawn) [Compound 4, 4-((2-aminopyrimidin-5-yl)ethynyl)-1-methyl-6-(6-phenyl-5,6-dihydrocyclopenta[c]pyrazol-2 (4H)-yl)pyridine-2 (1H)-one]	1.44	≤ 100 nM
C(#Cc1cnc2cccnn12)c1cccc(-n2cc3c(n2)C(c2ccccc2)CC3)c1 (stereo not drawn) [Compound 5]	0.75	≤ 100 nM
C(#Cc1cnc2cccnn12)c1cncc(-n2cc3c(n2)C(c2ccccc2)CC3)c1 (stereo not drawn) [Compound 6, 3-((5-(6-phenyl-5,6-dihydrocyclopenta[c]pyrazol-2 (4H)-yl)pyridin-3-yl)ethynyl)imidazo[1,2-b]pyridazine]	1.24	≤ 100 nM
C(#Cc1cnc2cccnn12)c1ccnc(-n2cc3c(n2)C(c2ccccc2)CC3)n1 (stereo not drawn) [Compound 7, 3-((2-(6-phenyl-5,6-dihydrocyclopenta[c]pyrazol-2 (4H)-yl)pyrimidine-4-yl)ethynyl)imidazo[1,2-b]pyridazine]	0.12	100 to 1000 nM
Nc1ncc(C#Cc2cc(-n3cc4c(n3)C(c3ccccc3)CC4)ncn2)cn1 (stereo not drawn) [Compound 9, 5-((6-(6-phenyl-5,6-dihydrocyclopenta[c]pyrazol-2 (4H)-yl)pyrimidine-4-yl)ethynyl)pyrimidin-2-amine]	2.85	100 to 1000 nM
NC(=O)c1ncc(C#Cc2cncc(-n3cc4c(n3)C(c3ccccc3)CC4)c2)cn1 (stereo not drawn) [Compound 10, 5-((5-(6-phenyl-5,6-dihydrocyclopenta[c]pyrazol-2 (4H)-yl)pyridin-3-yl)ethynyl)pyrimidine-2-carboxamide]	1.34	> 1000 nM
Oc1ccc(C#Cc2cncc(-n3cc4c(n3)C(c3ccccc3)CC4)c2)nn1 (stereo not drawn) [Compound 11, 6-((5-(6-phenyl-5,6-dihydrocyclopenta[c]pyrazol-2 (4H)-yl)pyridin-3-yl)ethynyl)pyridazine-3-ol]	1.23	≤ 100 nM
Nc1ncc(C#Cc2cncc(-n3cc4c(n3)[C@H](c3ccccc3)CC4)c2)cn1 [Compound 14]	2.92	≤ 100 nM
C(#Cc1cnc2ccccn12)c1cccc(-n2cc3c(n2)C(c2ccccc2)CC3)c1 (stereo not drawn) [Compound 15, 3-((3-(6-phenyl-5,6-dihydrocyclopenta[c]pyrazol-2 (4H)-yl)phenyl)ethynyl)imidazo[1,2-a]pyridine]	0.406	≤ 100 nM
Nc1ccc(C#Cc2cncc(-n3cc4c(n3)C(c3ccccc3)CC4)c2)cn1 (stereo not drawn) [Compound 16, 5-((5-(6-phenyl-5,6-dihydrocyclopenta[c]pyrazol-2 (4H)-yl)pyridin-3-yl)ethynyl)pyridine-2-amine]	2.24	≤ 100 nM
Cc1ncc(C#Cc2cccc(-n3cc4c(n3)C(c3ccccc3)CC4)c2)n1C (stereo not drawn) [Compound 24, 2-(3-((1,2-dimethyl-iH-imidazole-5-yl)ethynyl)phenyl)-6-phenyl-2,4,5,6-tetrahydrocyclopenta[c]pyrazole]	1.33	≤ 100 nM
Nc1ncc(C#Cc2ccnc(-n3cc4c(n3)C(c3ccccc3)CC4)c2)cn1 (stereo not drawn) [Compound 28]	1.91	≤ 100 nM
C(#Cc1cncc(-n2cc3c(n2)C(c2ccccc2)CC3)c1)c1ccccc1 (stereo not drawn) [Compound 30, 6-phenyl-2-(5-(phenylethynyl)pyridin-3-yl)-2,4,5,6-tetrahydrocyclopenta[c]pyrazole]	0.429	> 1000 nM
Nc1ncc(C#Cc2cncc(-n3cc4c(n3)[C@H](c3ccccc3)CC4)c2)s1 [Compound 31]	2.38	≤ 100 nM
C(#Cc1cccc(-n2cc3c(n2)C(c2ccccc2)CC3)c1)c1cccnc1 (stereo not drawn) [Compound 32, 6-phenyl-2-(3-(pyridin-3-ethynyl)phenyl)-2,4,5,6-tetrahydrocyclopenta[c]pyrazole]	1.27	≤ 100 nM
COc1ccc(C#Cc2cccc(-n3cc4c(n3)C(c3ccccc3)CC4)c2)cn1 (stereo not drawn) [Compound 33, 2-(3-((6-methoxypyridin-3-yl)ethynyl)phenyl)-6-phenyl-2,4,5,6-tetrahydrocyclopenta[c]pyrazole]	0.563	≤ 100 nM
Nc1ncc(C#Cc2cccc(-n3cc4c(n3)C(c3ccccc3)CC4)c2)cn1 (stereo not drawn) [Compound 36, 5-((3-(6-phenyl-5,6-dihydrocyclopenta[c]pyrazol-2 (4H)-yl)phenyl)ethynyl)pyrimidin-2-amine]	3.62	≤ 100 nM
C(#Cc1cnc2cccnn12)c1cc(-n2cc3c(n2)C(c2ccccc2)CC3)ccn1 (stereo not drawn) [Compound 37]	1.06	≤ 100 nM
Nc1ncc(C#Cc2cncc(-n3cc4c(n3)C(c3ccccc3)CC4)c2)cn1 (stereo not drawn) [Compound 38]	2.46	≤ 100 nM
Nc1ncc(C#Cc2cncc(-n3nc4c(c3Cl)CCC4c3ccccc3)c2)cn1 (stereo not drawn) [Compound 39]	2.07	≤ 100 nM
Cc1c2c(nn1-c1cncc(C#Cc3cnc(N)nc3)c1)C(c1ccccc1)CC2 (stereo not drawn) [Compound 40]	1.61	≤ 100 nM
